Measured values as given in US20040044032A1, “Farnesyl protein transfer inhibitors for the treatment of inflammatory bowel disease” (priority 2003, published 2004).
Where two headings read alike, the source gives them in different places.

Columns and labels:
[1] = system: DSS-induced colitis in mice; assay: Prevention of DSS-induced colitis in mice, repeat study with lower PO doses in 0.1 N HCl; assay type: in vivo; settings: for weight DAY 0: Day 0 (baseline); for % Inh. Colonic Shortening / % of Normal Length Shortening / DAI mean ± SEM / DAINWT mean ± SEM / Mean Colon Length Cm ± SEM: 5% DSS days 0-7
Text: (§1) All mice were weighed daily and observed for signs of gross toxicity and behavioural changes, consistency of stool and presence of gross blood during the study. On Day 7, all animals were euthanized by CO2 inhalation and necropsied. Following euthanasia, a stool sample was obtained from the colon of each animal and tested for occult blood (Quik-Cult, Laboratory Diagnostics Co., Morganville, N.J.). The colons were then removed and the length from the colo-cecal junction to the end of the distal rectum was measured. A segment of colon was collected from each animal and preserved in 10% formalin.
(§2) For each group, the disease activity index (DAI) was determined by evaluating changes in weight, Hemoccult positivity or gross bleeding and stool consistency using the following system.
(§3) Data was analyzed using analysis of variance (single factor). Statistically methods included the Mann-Whitney test, ANOVA and Turkey-Kramer Multiple Comparisons test.
(§4) Statistical significance between test and control groups was established at a probability of p<0.05.
In view of the above results the experiment was repeated with lower doses of compound 75. The above procedure was followed with the following groups
Individual doses were calculated based on daily body weights. Prior to administration, 50 mg of Compound 75 was diluted with 10 milliliters of 0.1N HCl (50 mg/kg for Group 5). The resulting solution was then further diluted twice, with 5 ml increments and used for the 25 (Group 4) and 12.5 (Group 3) mg/kg dose levels. The 0.1 N HCl was used for Groups 1 and 2 and constituted the vehicle control. Groups 2 through 5 were given a 5% w/w solution of dextran sulfate sodium (DSS) in distilled water substituted for their normal water supply (approximately 10 ml:mouse/day) from Days 0 through 7. Each group of animals received the appropriate amount of the test substance, as described above, by intubation using a stainless steel ball-tipped gavage needle attached to an appropriate syringe.

[2] = system: DSS-induced colitis in mice; assay type: in vivo; settings: for Mean Weight (±SEM) DAY 0: Day 0 (baseline); for Mean Colon Length Cm ± SEM: necropsy Day 7; for deaths: 10 mice/group
Text: The purpose of this study was to identify, characterize and document the preventative actions of compound 75 above, namely (+)-6-[amino(4-chlorophenyl) (1-methyl-1H-imidazol-5-yl)methyl]-4-(3-chlorophenyl)-1-methyl-2(1H)-quinolinone, a compound of formulae (I), in an experimental model of inflammatory bowel disease in mice.
A group of female Swiss-Webster mice was received from Ace Animals, Inc., Boyertown, Pa. The animals were grouped housed (5 mice/cage) in plastic cages with water absorbent bedding. […] The animals were fed Purina Rodent Chow #5012 and filtered tap water was supplied ad libitum by automatic watering system (during acclimation).
Following an acclimation period of 9 days, 40 healthy mice were selected for this study. The test animals were distributed (10 mice/group) into each one of the 4 test groups described below. There were no statistical significant differences between the mean group body weights.
Individual doses were calculated based on daily body weights. Prior to administration, Compound 75 was mixed with the vehicle (Beta cyclodextrin (40%) in 0.1 N HCL). This mixture was further diluted with 0.1 N HCL. The resulting mixture was then used to prepare the dilutions for groups 3 and 4. A 20% solution of Beta cyclodextrin in 0.1 N HCL was used for Groups 1 and 2 and constituted the vehicle control. Groups 2 through 4 were given a 5% w/w solution of dextran sulfate sodium (DSS) in distilled water substituted for their normal water supply (approximately 10 ml/mouse/day) from Days 0 through 6. Each group of animals received the appropriate amount of the test substance, as described above, by intubation using a stainless steel ball-tipped gavage needle attached to an appropriate syringe.
as §1, §2, §3, §4

[3] = 25 mg/kg PO bid days 0-6, 5% DSS
[4] = 50 mg/kg PO bid days 0-6, 5% DSS

Q: `Cn1cncc1C(N)(c1ccc(Cl)cc1)c1ccc2c(c1)c(-c1cccc(Cl)c1)cc(=O)n2C` (single isomer, unassigned; (+)) [Compound 75, (+)-6-[amino(4-chlorophenyl)(1-methyl-1H-imidazol-5-yl)methyl]-4-(3-chlorophenyl)-1-methyl-2(1H)-quinolinone] was tested. Which “weight DAY 0” value ([1]; 12.5 mg/kg PO + DSS) did it give?
A: 23.6 ± 0.3

Q: What about the “% change (weight) DAY 5” value ([1]; 12.5 mg/kg PO + DSS) of the same molecule?
A: +1.3 ± 1.0%

Q: And the “weight DAY 5” value ([1]; 12.5 mg/kg PO + DSS)?
A: 23.9 ± 0.4

Q: What about the “% change (weight) DAY 6” value ([1]; 12.5 mg/kg PO + DSS) of the same molecule?
A: 0.0 ± 1.0%

Q: And the “weight DAY 6” value ([1]; 12.5 mg/kg PO + DSS)?
A: 23.6 ± 0.4

Q: What about the “% change (weight) DAY 7” value ([1]; 12.5 mg/kg PO + DSS) of the same molecule?
A: +1.3 ± 1.0%

Q: And the “weight DAY 7” value ([1]; 12.5 mg/kg PO + DSS)?
A: 23.9 ± 0.4

Q: And the “% Inh. Colonic Shortening” value ([1]; 12.5 mg/kg PO daily)?
A: 65%

Q: And the “% of Normal Length Shortening” value ([1]; 12.5 mg/kg PO daily)?
A: 89.6%

Q: And the “DAI mean ± SEM” value ([1]; 12.5 mg/kg PO daily)?
A: 1.57 ± 0.17

Q: And the “DAINWT mean ± SEM” value ([1]; 12.5 mg/kg PO daily)?
A: 2.25 ± 0.25

Q: What about the “Mean Colon Length Cm ± SEM” value ([1]; 12.5 mg/kg PO daily) of the same molecule?
A: 10.0 ± 0.1 Cm

Q: What about the “weight DAY 0” value ([1]; 25 mg/kg PO + DSS) of the same molecule?
A: 24.2 ± 0.4

Q: And the “weight DAY 5” value ([1]; 25 mg/kg PO + DSS)?
A: 24.7 ± 0.6

Q: What about the “% change (weight) DAY 6” value ([1]; 25 mg/kg PO + DSS) of the same molecule?
A: −1.2 ± 1.0%

Q: What about the “weight DAY 6” value ([1]; 25 mg/kg PO + DSS) of the same molecule?
A: 23.9 ± 0.5

Q: And the “% change (weight) DAY 7” value ([1]; 25 mg/kg PO + DSS)?
A: +2.9 ± 1.0%

Q: And the “weight DAY 7” value ([1]; 25 mg/kg PO + DSS)?
A: 24.9 ± 0.5

Q: What about the “% Inh. Colonic Shortening” value ([1]; 25 mg/kg PO) of the same molecule?
A: 58%

Q: What about the “% of Normal Length Shortening” value ([1]; 25 mg/kg PO) of the same molecule?
A: 88.7%

Q: What about the “DAI mean ± SEM” value ([1]; 25 mg/kg PO) of the same molecule?
A: 1.53 ± 0.17

Q: And the “DAINWT mean ± SEM” value ([1]; 25 mg/kg PO)?
A: 2.30 ± 0.25

Q: What about the “Mean Colon Length Cm ± SEM” value ([1]; 25 mg/kg PO) of the same molecule?
A: 9.9 ± 0.3 Cm

Q: What about the “weight DAY 0” value ([1]; 50 mg/kg PO + DSS) of the same molecule?
A: 23.9 ± 0.3

Q: And the “% change (weight) DAY 5” value ([1]; 50 mg/kg PO + DSS)?
A: −0.7 ± 1.0%

Q: And the “weight DAY 5” value ([1]; 50 mg/kg PO + DSS)?
A: 23.9 ± 0.3

Q: And the “% change (weight) DAY 6” value ([1]; 50 mg/kg PO + DSS)?
A: −1.6 ± 1.0%

Q: And the “weight DAY 6” value ([1]; 50 mg/kg PO + DSS)?
A: 23.5 ± 0.3

Q: And the “% change (weight) DAY 7” value ([1]; 50 mg/kg PO + DSS)?
A: −0.3 ± 2.0%

Q: What about the “weight DAY 7” value ([1]; 50 mg/kg PO + DSS) of the same molecule?
A: 23.8 ± 0.3

Q: And the “% Inh. Colonic Shortening” value ([1]; 50 mg/kg PO)?
A: 52%

Q: And the “% of Normal Length Shortening” value ([1]; 50 mg/kg PO)?
A: 87.0%

Q: What about the “DAI mean ± SEM” value ([1]; 50 mg/kg PO) of the same molecule?
A: 1.70 ± 0.18

Q: What about the “DAINWT mean ± SEM” value ([1]; 50 mg/kg PO) of the same molecule?
A: 2.30 ± 0.24

Q: What about the “Mean Colon Length Cm ± SEM” value ([1]; 50 mg/kg PO) of the same molecule?
A: 9.7 ± 0.2 Cm

Q: What about the “deaths during the duration of the experiment” value ([1]; 12.5, 25, 50 mg/kg PO) of the same molecule?
A: No deaths

Q: What about the “dose of maximal effectiveness on prevention of colonic shortening” value ([1]; PO daily, lowest dose tested) of the same molecule?
A: 12.5 mg/kg

Q: And the “protection based on DAI and DAINWT” value ([1]; all doses (12.5, 25, 50 mg/kg PO))?
A: statistically significant protection

Q: What about the “Mean Weight (±SEM) DAY 0” value ([2]; 25 mg/kg PO bid + DSS) of the same molecule?
A: 25.1 ± 0.5 grams

Q: What about the “% weight change (±SEM) DAY 5” value ([2]; 25 mg/kg PO bid + DSS) of the same molecule?
A: −8.3 ± 1.5%

Q: What about the “Mean Weight (±SEM) DAY 5” value ([2]; 25 mg/kg PO bid + DSS) of the same molecule?
A: 23.0 ± 0.5 grams

Q: What about the “% weight change (±SEM) DAY 6” value ([2]; 25 mg/kg PO bid + DSS) of the same molecule?
A: −8.7 ± 2.7%

Q: What about the “Mean Weight (±SEM) DAY 6” value ([2]; 25 mg/kg PO bid + DSS) of the same molecule?
A: 22.9 ± 0.7 grams

Q: And the “% weight change (±SEM) DAY 7” value ([2]; 25 mg/kg PO bid + DSS)?
A: −9.6 ± 3.5%

Q: What about the “Mean Weight (±SEM) DAY 7” value ([2]; 25 mg/kg PO bid + DSS) of the same molecule?
A: 22.7 ± 0.9 grams

Q: What about the “% of Normal Length Shortening” value [2, 3] of the same molecule?
A: 82.0%

Q: What about the “Blood in Feces (%)” value [2, 3] of the same molecule?
A: 0%

Q: What about the “DAI mean ± SEM” value [2, 3] of the same molecule?
A: 1.70 ± 0.26

Q: And the “DAINWT Mean ± SEM (DAI without body weight parameter)” value [2, 3]?
A: 1.50 ± 0.22

Q: And the “Mean Colon Length Cm ± SEM” value [2, 3]?
A: 9.7 ± 0.3 Cm

Q: What about the deaths ([2]; 25 mg/kg dose) of the same molecule?
A: 1

Q: And the “Mean Weight (±SEM) DAY 0” value ([2]; 50 mg/kg PO bid + DSS)?
A: 25.6 ± 0.5 grams

Q: What about the “% weight change (±SEM) DAY 5” value ([2]; 50 mg/kg PO bid + DSS) of the same molecule?
A: −9.5 ± 1.3%

Q: And the “Mean Weight (±SEM) DAY 5” value ([2]; 50 mg/kg PO bid + DSS)?
A: 23.1 ± 0.5 grams

Q: What about the “% weight change (±SEM) DAY 6” value ([2]; 50 mg/kg PO bid + DSS) of the same molecule?
A: −8.8 ± 2.2%

Q: What about the “Mean Weight (±SEM) DAY 6” value ([2]; 50 mg/kg PO bid + DSS) of the same molecule?
A: 23.3 ± 0.8 grams

Q: And the “% weight change (±SEM) DAY 7” value ([2]; 50 mg/kg PO bid + DSS)?
A: −9.2 ± 1.9%

Q: What about the “Mean Weight (±SEM) DAY 7” value ([2]; 50 mg/kg PO bid + DSS) of the same molecule?
A: 23.2 ± 0.7 grams

Q: What about the “% of Normal Length Shortening” value [2, 4] of the same molecule?
A: 77.9%

Q: What about the “Blood in Feces (%)” value [2, 4] of the same molecule?
A: 22%

Q: What about the “DAI mean ± SEM” value [2, 4] of the same molecule?
A: 2.11 ± 0.25

Q: What about the “DAINWT Mean ± SEM (DAI without body weight parameter)” value [2, 4] of the same molecule?
A: 2.06 ± 0.28

Q: What about the “Mean Colon Length Cm ± SEM” value [2, 4] of the same molecule?
A: 9.2 ± 0.1 Cm

Q: What about the deaths ([2]; 50 mg/kg dose) of the same molecule?
A: 1

Q: And the “prevention of colitis produced by 5% Dextran Sulfate Sodium” value ([2]; PO bid, 5% DSS)?
A: significant activity

Q: What about the “protection against weight loss” value ([2]; any dose (25 and 50 mg/kg PO bid)) of the same molecule?
A: No significant protection

Q: What about the “shortening of the colon produced by DSS” value ([2]; dose levels of 25 and 50 mg/kg PO bid) of the same molecule?
A: prevented
